From the supplement of paper PMC10307832

Columns and labels:
Assay in all cases: relative viability (nuclei count vs DMSO), 5 days (fraction); higher = more cells survive
[1] = compound: CCN(CCO)CCCC(C)Nc1ccnc2cc(Cl)ccc12 [Hydroxychloroquine] + CC(C)C[C@H](NC(=O)[C@H](Cc1ccccc1)NC(=O)c1cnccn1)B(O)O [Bortezomib] (partner 0.002 µM)
Procedure, shortened: (§1)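 Values are medians from duplicate plates. Each reflects relative viability, defined as the nuclei count of treated wells over that of vehicle wells. Lung cancer cell lines in 1536-well plates were pin-tool dosed one day after seeding with one drug alone or with a fixed anchor-drug dose plus five library-drug doses (not always all listed) in √10 steps, then fixed, stained and imaged at 4× after 5 days.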

[2] = compound: CCN(CCO)CCCC(C)Nc1ccnc2cc(Cl)ccc12 [Hydroxychloroquine] + Nc1ncn([C@H]2C[C@H](O)[C@@H](CO)O2)c(=O)n1 [Decitabine] (partner 2 µM)
Procedure, shortened: as §1

[3] = compound: CCN(CCO)CCCC(C)Nc1ccnc2cc(Cl)ccc12 [Hydroxychloroquine] + NC(=O)Nc1cc(-c2cccc(F)c2)sc1C(=O)N[C@H]1CCCNC1 [AZD7762] (partner 0.2 µM)
Procedure, shortened: as §1

[4] = compound: CCN(CCO)CCCC(C)Nc1ccnc2cc(Cl)ccc12 [Hydroxychloroquine] + CS(=O)(=O)CCNCc1ccc(-c2ccc3ncnc(Nc4ccc(OCc5cccc(F)c5)c(Cl)c4)c3c2)o1 [Lapatinib] (partner 2 µM)
Procedure, shortened: as §1

| Cell Line | relative viability ([1]; first compound 0.5 µM) | relative viability ([1]; first compound 1.581 µM) | relative viability ([1]; first compound 5 µM) | relative viability ([1]; first compound 15.81 µM) | relative viability ([1]; first compound 50 µM) | relative viability ([2]; first compound 0.5 µM) | relative viability ([2]; first compound 1.581 µM) | relative viability ([2]; first compound 5 µM) | relative viability ([2]; first compound 15.81 µM) | relative viability ([2]; first compound 50 µM) | relative viability ([3]; first compound 0.5 µM) | relative viability ([3]; first compound 1.581 µM) | relative viability ([3]; first compound 5 µM) | relative viability ([3]; first compound 15.81 µM) | relative viability ([3]; first compound 50 µM) | relative viability ([4]; first compound 0.5 µM) | relative viability ([4]; first compound 1.581 µM) | relative viability ([4]; first compound 5 µM) | relative viability ([4]; first compound 15.81 µM) | relative viability ([4]; first compound 50 µM) |
| --- | --- | --- | --- | --- | --- | --- | --- | --- | --- | --- | --- | --- | --- | --- | --- | --- | --- | --- | --- | --- |
| PC-14 | 0.783 | 0.959 | 0.925 | 0.788 | 0.852 | 0.248 | 0.149 | 0.214 | 0.231 | 0.201 | 0.3 | 0.459 | 0.31 | 0.302 | 0.406 | 0.348 | 0.354 | 0.291 | 0.306 | 0.292 |
| RERF-LC-KJ | 1.15 | 1.1 | 0.984 | 1.15 | 1.08 | 0.659 | 0.684 | 0.754 | 0.7 | 0.608 | 0.959 | 0.961 | 1.01 | 0.91 | 1.08 | 0.847 | 0.805 | 0.942 | 0.779 | 0.94 |
